Measured values taken from patent EP0698614A1, “Endothelin-antagonizing peptide” (KYOWA HAKKO KOGYO CO., LTD., priority 1994, dated 1996).
Like-named read-outs stand apart in the source and are kept apart here.

Key:
endothelin receptor [1] = biological target: T1, endothelin receptor (Bos taurus, UniProt P28088); experiment: Endothelin receptor binding inhibition (125I-endothelin-1), bovine cerebellum membrane fraction (Test Example 1); conditions: read-out: IC₅₀
T1 construct: the suspension was used as a membrane fraction liquid; from tissue; host or cells: bovine cerebellum membrane fraction
T1 sequence (P28088 27-441): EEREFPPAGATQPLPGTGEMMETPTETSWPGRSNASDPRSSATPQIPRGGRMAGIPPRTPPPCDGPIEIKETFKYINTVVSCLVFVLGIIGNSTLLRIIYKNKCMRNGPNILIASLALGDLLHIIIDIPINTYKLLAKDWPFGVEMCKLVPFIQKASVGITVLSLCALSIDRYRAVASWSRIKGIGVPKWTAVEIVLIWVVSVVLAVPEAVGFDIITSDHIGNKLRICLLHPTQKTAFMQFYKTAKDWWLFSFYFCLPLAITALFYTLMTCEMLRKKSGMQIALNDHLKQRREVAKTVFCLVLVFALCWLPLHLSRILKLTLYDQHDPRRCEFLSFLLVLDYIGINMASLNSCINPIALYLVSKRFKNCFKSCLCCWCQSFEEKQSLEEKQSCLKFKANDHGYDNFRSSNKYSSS
Protocol: (§1) The resulting solid substance was prepared as a suspension containing 2 mg/ml of protein, and the suspension was used as a membrane fraction liquid. […]

endothelin receptor [2] = biological target: T2, endothelin receptor (Bos taurus, UniProt P21450); experiment: Endothelin receptor binding inhibition (125I-endothelin-1), bovine lung membrane fraction with RES-701-1 added (Test Example 2); conditions: read-out: IC₅₀
T2 construct: from tissue
T2 sequence (P21450 21-427): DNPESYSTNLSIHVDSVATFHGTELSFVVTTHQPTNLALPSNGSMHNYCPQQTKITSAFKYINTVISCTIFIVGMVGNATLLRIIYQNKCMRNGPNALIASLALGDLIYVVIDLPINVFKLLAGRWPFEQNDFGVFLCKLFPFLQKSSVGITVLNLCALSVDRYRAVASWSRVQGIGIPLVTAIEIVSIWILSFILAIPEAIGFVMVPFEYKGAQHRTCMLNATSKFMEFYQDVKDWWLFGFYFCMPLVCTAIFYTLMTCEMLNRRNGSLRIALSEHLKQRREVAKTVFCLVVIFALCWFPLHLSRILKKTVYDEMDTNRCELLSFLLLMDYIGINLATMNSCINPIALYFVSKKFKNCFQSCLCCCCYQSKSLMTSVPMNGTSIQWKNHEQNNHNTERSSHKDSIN
Protocol: as §1

Compound	IC50 (endothelin receptor [1]; Concentration causing 50 % inhibition of endothelin-1 binding, bovine cerebellum tissue membrane fraction, 25°C for 2 hours)	IC50 (endothelin receptor [2]; Concentration causing 50 % inhibition of endothelin-1 binding, bovine lung tissue membrane fraction, RES-701-1 added at […])	IC50 (endothelin receptor [1])	IC50 (endothelin receptor [2])
COC(=O)[C@H](Cc1c[nH]c2ccccc12)NC(=O)[C@H](Cc1ccc(O)cc1)NC(=O)[C@H](Cc1ccc(O)cc1)NC(=O)[C@H](CC(N)=O)NC(=O)[C@H](Cc1ccccc1)NC(=O)[C@H](Cc1ccccc1)NC(=O)[C@H](Cc1c[nH]c2ccccc12)NC(=O)[C@@H]1CC(=O)NCC(=O)N[C@@H](CC(N)=O)C(=O)N[C@@H](Cc2c[nH]c3ccccc23)C(=O)N[C@@H](Cc2c[nH]cn2)C(=O)NCC(=O)N[C@@H]([C@@H](C)O)C(=O)N[C@@H](C)C(=O)N2CCC[C@H]2C(=O)N1 [(I-1)]	[…]	58 nM		
C[C@@H]1NC(=O)[C@H]([C@@H](C)O)NC(=O)CNC(=O)[C@H](Cc2c[nH]cn2)NC(=O)[C@H](Cc2c[nH]c3ccccc23)NC(=O)[C@H](CC(N)=O)NC(=O)CNC(=O)C[C@@H](C(=O)N[C@@H](Cc2c[nH]c3ccccc23)C(=O)N[C@@H](Cc2ccccc2)C(=O)N[C@@H](Cc2ccccc2)C(=O)N[C@@H](CC(N)=O)C(=O)N[C@@H](Cc2ccc(O)cc2)C(=O)N[C@@H](Cc2ccc(O)cc2)C(=O)N[C@@H](Cc2c[nH]c3ccccc23)C(N)=O)NC(=O)[C@@H]2CCCN2C1=O [(I-3)]			49 nM	> 490 nM
